# Results published in patent publication US7049443B2, “Amide-containing compound having improved solubility and method of improving the solubility of an amide-containing compound” (Pharmacia & Upjohn Company, priority 2001, dated 2006).
# Values joined by “and” are separate entries in the source; they are usually repeats but may differ in a detail not shown here. Identical values can stand only once.
row,melting point,Structure (SMILES)
1,279 to 281 °C (dec.),"NC(=O)[C@H]1CN(c2ccc([C@H]3CC[S@@+]([O-])CC3)c(F)c2)C(=O)O1 (racemic) [Example 456, (SR)-3-[3-Fluoro-4-(cis-tetrahydro-1-oxido-2H-thiopyran-4-yl)phenyl]-2-oxo-5-oxazolidinecarboxamide]"
2,185 to 187 °C (dec.),"NC(=O)[C@H]1CN(c2ccc(N3CCOCC3)c(F)c2)C(=O)O1 [Example 435, (5R)-(−)-3-[3-Fluoro-4-(4-morpholinyl)phenyl]-2-oxo-5-oxazolidinecarboxamide]"
3,182 to 183 °C (dec.),"CNC(=O)[C@H]1CN(c2ccc(N3CCOCC3)c(F)c2)C(=O)O1 [Example 436, (5R)-(−)-3-[3-Fluoro-4-(4-morpholinyl)phenyl]-N-methyl-2-oxo-5-oxazolidinecarboxamide]"
4,167 to 169 °C,"C=CCNC(=O)[C@H]1CN(c2ccc(N3CCOCC3)c(F)c2)C(=O)O1 [Example 437, (5R)-(−)-3-[3-Fluoro-4-(4-morpholinyl)phenyl]-N-allyl-2-oxo-5-oxazolidinecarboxamide]"
5,165 to 167 °C,"CCCNC(=O)[C@H]1CN(c2ccc(N3CCOCC3)c(F)c2)C(=O)O1 [Example 438, (5R)-(−)-3-[3-Fluoro-4-(4-morpholinyl)phenyl]-N-propyl-2-oxo-5-oxazolidinecarboxamide]"
6,206 to 208 °C (dec.),"CONC(=O)[C@H]1CN(c2ccc(N3CCOCC3)c(F)c2)C(=O)O1 [Example 439, (5R)-(−)-3-[3-Fluoro-4-(4-morpholinyl)phenyl]-N-methoxy-2-oxo-5-oxazolidinecarboxamide]"
7,141 to 143 °C,"O=C(NO)[C@H]1CN(c2ccc(N3CCOCC3)c(F)c2)C(=O)O1 [Example 440, (5R)-(−)-3-[3-Fluoro-4-(4-morpholinyl)phenyl]-N-hydroxy-2-oxo-5-oxazolidinecarboxamide]"
8,164 to 169 °C,"NC(=O)[C@H]1CN(c2ccc(C3=CCOCC3)c(F)c2)C(=O)O1 [Example 443, (5R)-(−)-3-[4-(3,6-Dihydro-2H-pyran-4-yl)-3-fluorophenyl]-2-oxo-5-oxazolidinecarboxamide]"
9,153 to 156 °C,"NC(=O)[C@H]1CN(c2ccc(C3CCOCC3)c(F)c2)C(=O)O1 [Example 444, (5R)-(−)-3-[4-(Tetrahydro-2H-pyran-4-yl)-3-fluorophenyl]-2-oxo-5-oxazolidinecarboxamide]"
10,206 to 208 °C,"NC(=O)[C@H]1CN(c2ccc(C3=CCS(=O)(=O)CC3)c(F)c2)C(=O)O1 [Example 446, (5R)-(−)-3-[4-(3,6-Dihydro-2H-thiopyran-4-yl)-3-fluorophenyl]-2-oxo-5-oxazolidinecarboxamide S,S-dioxide]"
11,232 to 235 °C (dec.),"NC(=O)[C@H]1CN(c2ccc(N3CCN(C(=O)CO)CC3)c(F)c2)C(=O)O1 [Example 448, (5R)-(−)-3-[3-Fluoro-4-[4-(hydroxyacetyl)-1-piperazinyl]phenyl]-2-oxo-5-oxazolidinecarboxamide]"
12,181 to 183 °C,"NC(=O)[C@H]1CN(c2cc(F)c(N3CCOCC3)c(F)c2)C(=O)O1 [Example 451, (5R)-(−)-3-[3,5-Difluoro-4-(4-morpholinyl)phenyl]-2-oxo-5-oxazolidinecarboxamide]"
13,245 to 247 °C (dec.),"NC(=O)[C@H]1CN(c2ccc(N3CCS(=O)(=O)CC3)c(F)c2)C(=O)O1 [Example 453, (5R)-(−)-3-[3-Fluoro-4-(thiomorpholin-4-yl)phenyl]-2-oxo-5-oxazolidinecarboxamide S,S-dioxide]"
14,264 to 266 °C (dec.),"NC(=O)[C@H]1CN(c2ccc(N3CC[S+]([O-])CC3)c(F)c2)C(=O)O1 [Example 454, (5R)-(−)-3-[3-Fluoro-4-(thiomorpholin-4-yl)phenyl]-2-oxo-5-oxazolidinecarboxamide S-oxide]"
15,201 to 203 °C,"NC(=O)[C@H]1CN(c2ccc([C@H]3CC[S@+]([O-])CC3)c(F)c2)C(=O)O1 [Example 457, (5R)-3-[3-Fluoro-4-(trans-tetrahydro-1-oxido-2H-thiopyran-4-yl)phenyl]-2-oxo-5-oxazolidinecarboxamide]"

# The next lines start with the compound.
row,Structure (SMILES),melting point
1,"NC(=O)[C@H]1CN(c2ccc([C@H]3CC[S@+]([O-])CC3)cc2)C(=O)O1 (racemic) [Example 460, (SR)-3-[4-(trans-tetrahydro-1-oxido-2H-thiopyran-4-yl)phenyl]-2-oxo-5-oxazolidinecarboxamide]",174 to 175 °C
2,"NC(=O)[C@H]1CN(c2ccc(-c3cccnc3)c(F)c2)C(=O)O1 [Example 441, (5R)-(−)-3-[4-(3-Pyridyl)-3-fluorophenyl]-2-oxo-5-oxazolidinecarboxamide]",240 to 242 °C (dec.)
3,"NC(=O)[C@H]1CN(c2ccc(-c3ccncc3)c(F)c2)C(=O)O1 [Example 442, (5R)-(−)-3-[4-(4-Pyridyl)-3-fluorophenyl]-2-oxo-5-oxazolidinecarboxamide]",256 to 259 °C (dec.)
4,"NC(=O)[C@H]1CN(c2ccc(C3=CC[S+]([O-])CC3)c(F)c2)C(=O)O1 (stereo partly drawn) [Example 445, (5R)-3-[4-(3,6-Dihydro-2H-thiopyran-4-yl)-3-fluorophenyl]-2-oxo-5-oxazolidinecarboxamide S-oxide]",182 to 184 °C (dec.)
5,"NC(=O)[C@H]1CN(c2ccc(C3CCS(=O)(=O)CC3)c(F)c2)C(=O)O1 [Example 447, (5R)-(−)-3-[4-(Tetrahydro-2H-thiopyran-4-yl)-3-fluorophenyl]-2-oxo-5-oxazolidinecarboxamide S,S-dioxide]",231 to 234 °C (dec.) and 229 to 231 °C (dec.)
6,"NC(=O)[C@H]1CN(c2cc(F)c(N3CCS(=O)(=O)CC3)c(F)c2)C(=O)O1 [Example 449, (5R)-(−)-3-[4-(Thiomorpholin-4-yl)-3,5-difluorophenyl]-2-oxo-5-oxazolidinecarboxamide S,S-dioxide]",245 to 248 °C (dec.)
7,"NC(=O)[C@H]1CN(c2ccc(N3CCS(=O)(=O)CC3)cc2)C(=O)O1 [Example 452, (5R)-(−)-3-[4-(Thiomorpholin-4-yl)phenyl]-2-oxo-5-oxazolidinecarboxamide S,S-dioxide]",226 to 228 °C
8,"NC(=O)[C@H]1CN(c2cc(F)c(N3CC[S+]([O-])CC3)c(F)c2)C(=O)O1 [Example 455, (5R)-(−)-3-[3,5-Difluoro-4-(thiomorpholin-4-yl)phenyl]-2-oxo-5-oxazolidinecarboxamide S-oxide]",273 to 276 °C (dec.)
9,"NC(=O)[C@H]1CN(c2ccc(C3CCS(=O)(=O)CC3)cc2)C(=O)O1 [Example 458, (5R)-(−)-3-[4-(tetrahydro-2H-thiopyran-4-yl)phenyl]-2-oxo-5-oxazolidinecarboxamide S,S-dioxide]",211 to 212 °C
10,"NC(=O)[C@H]1CN(c2ccc([C@H]3CC[S@@+]([O-])CC3)cc2)C(=O)O1 [Example 459, (5R)-3-[4-(cis-tetrahydro-1-oxido-2H-thiopyran-4-yl)phenyl]-2-oxo-S-oxazolidinecarboxamide]",269 to 273 °C (dec.)
